Laboratory results: PubChem BioAssay (NCI)
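Briefly, cells in 96-well plates were exposed to five compound concentrations for 48 h, and endpoints were estimated by linear interpolation. The concentration for full growth arrest is given as TGI.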

Assays:
Assay in all cases: inhibition of tumour cell growth, NCI panel, 48 h
[1] = tested on: TK-10 renal
[2] = tested on: SW-620 colon
[3] = tested on: RPMI-8226 leukemia
[4] = tested on: HT29 colon
[5] = tested on: OVCAR-5 ovarian
[6] = tested on: ACHN renal
[7] = tested on: M14 melanoma
[8] = tested on: SK-MEL-28 melanoma
[9] = tested on: HOP-62 NSCLC
[10] = tested on: SN12C renal
[11] = tested on: NCI-H522 lung
[12] = tested on: T-47D breast
[13] = tested on: EKVX NSCLC
[14] = tested on: MDA-N
[15] = tested on: OVCAR-3 ovarian
[16] = tested on: UACC-62 melanoma
[17] = tested on: MALME-3M melanoma
[18] = tested on: SF-295 CNS
[19] = tested on: BT-549 breast

Row | Structure (SMILES) | TGI [1] [µM] | TGI [2] [µM] | TGI [3] [µM] | TGI [4] [µM] | TGI [5] [µM] | TGI [6] [µM] | TGI [7] [µM] | TGI [8] [µM] | TGI [9] [µM] | TGI [10] [µM] | TGI [11] [µM] | TGI [12] [µM] | TGI [13] [µM] | TGI [14] [µM] | TGI [15] [µM] | TGI [16] [µM] | TGI [17] [µM] | TGI [18] [µM] | TGI [19] [µM]
1 | CCC1CN2CCc3cc(OC)c(OC)cc3C2CC1CC1c2cc(OC)c(OC)cc2CCN1C(=O)C(Cc1c[nH]c2ccccc12)NC(=O)OC(C)(C)C (stereo unspecified) | 16 | 9.03 | 6.15 | 4.01 | 16.7 | 10.4 | 3.29 | 4.31 | 14.5 | 8.7 | 5.57 | 4.16 | 10 | 3.49 | 6.74 | 14 | 3.22 | 9.31 | 7.83
2 | Cc1nn(C(=O)c2ccc(Cl)cc2)c2c1C(c1ccccc1)SC(N)=N2 (stereo unspecified) | > 10 | > 10 | > 10 | > 10 | > 10 | > 10 | > 10 | > 10 | > 10 | > 10 | > 10 | > 10 | > 10 | > 10 | > 10 | > 10 | > 10 | > 10 | > 10
3 | CCOc1ccc(-n2c(=O)c3nn4c(=O)n(-c5ccc(OCC)cc5)c(=O)c4nn3c2=O)cc1 | > 100 | > 100 | > 100 | > 100 | > 100 | > 100 | > 100 | > 100 | > 100 | > 100 | > 100 | > 100 | > 100 | > 100 | > 100 | > 100 | > 100 | > 100 | > 100
4 | Cc1cc(C)c2c(=O)cc(-c3ccccc3)[nH]c2c1 | 22.8 | > 100 | 22.8 | 27.1 | > 92.3 | 23.5 | > 82.4 | 35.3 | 23.7 | > 65.3 | 7.29 | > 76.2 | 42.8 | 3.17 | 25.6 | 28.7 | > 80.4 | 17.9 | 54.2
5 | COc1ccc(-c2nc(SCC(=O)N/N=C/c3ccc([N+](=O)[O-])cc3)[nH]c2-c2ccc(OC)cc2)cc1 | > 100 | > 65.7 | 62 | 26.9 | 60.7 | 99.4 | 32.3 | > 72 | > 100 | 46.6 | 29.7 | > 100 | 98.8 | 12.9 | > 64.5 | 20.5 | 50.8 | > 69 | 51.3
6 | CCc1nc2c(n1CC)C(=O)c1ccccc1C2=O | 93.1 | > 100 | > 100 | 63.9 | > 100 | > 100 | 54.9 | > 100 | > 100 | > 100 | 96 | 57 | > 100 | > 10 | 53.9 | > 100 | 34.3 | > 100 | > 100
7 | CC(C)(C)OC(=O)CCC1NC(=O)[C@@H]2Cc3c([nH]c4ccccc34)C(c3ccccc3)N2C1=O (stereo partly specified) | > 100 | > 100 | > 100 | 56 | 70.2 | 94.5 | 87.2 | > 100 | 51.2 | 53.1 | 54.1 | > 100 | > 100 | 45.7 | 48.5 | 35.7 | 43.4 | 37.8 | 64.4
8 | CCOC(=O)C(CC(C)C)NC(=O)C(N)Cc1ccc(N(CCCl)CCCl)cc1 (stereo unspecified) | 25.3 | 35.7 | > 64.7 | 11.6 | 33.7 | 1.81 | 11.7 | 13.7 | 22 | 19.7 | 8.53 | 15.1 | 37.5 | 26.1 | 4.72 | 9.56 | 3.84 | 21.9 | 46
9 | C/C(CC(O)(C(F)(F)Cl)C(F)(F)Cl)=N\Nc1ccccc1 | 95.3 | > 100 | > 100 | > 100 | > 100 | 85.2 | > 100 | > 100 | – | – | > 100 | > 100 | 93.8 | > 100 | 48.3 | > 100 | > 100 | > 100 | > 100
10 | Oc1c(Nc2ccccc2)cc2c3c1N=NC=3CCN=2 | > 100 | > 100 | > 100 | > 100 | > 100 | > 100 | > 100 | > 100 | > 100 | > 100 | > 100 | > 100 | > 100 | 31.7 | > 100 | 49.2 | 29.1 | > 100 | > 100
11 | O=C(O)[C@@]1(Cc2ccc(O)cc2)C[C@@H]2Cc3ccccc3N2N1 | > 100 | > 100 | > 100 | > 100 | > 100 | > 100 | > 100 | > 100 | > 100 | > 100 | > 100 | > 100 | > 100 | > 100 | > 100 | > 100 | > 100 | > 100 | > 100
12 | Cc1ccc(C)n1-n1c(Cc2ccc(Cl)cc2)n[nH]c1=O | > 100 | > 100 | > 100 | > 100 | > 100 | > 100 | > 100 | > 100 | > 100 | > 100 | > 100 | > 100 | > 100 | > 100 | > 100 | > 100 | > 100 | > 100 | > 100
